Measured values as given in PubChem BioAssay (NCI).
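Dose response: 5 concentrations. Exposure: 48 h. Format: 96-well plates. Endpoint: linear interpolation; highest concentration if not reached. Here, GI50 denotes the concentration required for 50% inhibition of growth. TGI: total growth inhibition.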

Experiments:
Test in all cases: growth of human tumour cells (NCI), 48 h
SW-620 colon = tested on: SW-620 colon
UACC-257 melanoma = tested on: UACC-257 melanoma
SK-MEL-28 melanoma = tested on: SK-MEL-28 melanoma
UACC-62 melanoma = tested on: UACC-62 melanoma
HCT-15 colon = tested on: HCT-15 colon
M14 melanoma = tested on: M14 melanoma
HCC-2998 colon = tested on: HCC-2998 colon
OVCAR-8 ovarian = tested on: OVCAR-8 ovarian
KM12 colon = tested on: KM12 colon
SN12C renal = tested on: SN12C renal

Row | SMILES | TGI (SW-620 colon) [µM] | TGI (UACC-257 melanoma) [µM] | TGI (SK-MEL-28 melanoma) [µM] | TGI (UACC-62 melanoma) [µM] | TGI (HCT-15 colon) [µM] | TGI (M14 melanoma) [µM] | TGI (HCC-2998 colon) [µM] | TGI (OVCAR-8 ovarian) [µM] | TGI (KM12 colon) [µM] | TGI (SN12C renal) [µM] | GI50 (SW-620 colon) [µM] | GI50 (KM12 colon) [µM] | GI50 (UACC-62 melanoma) [µM] | GI50 (SN12C renal) [µM] | GI50 (HCC-2998 colon) [µM] | GI50 (OVCAR-8 ovarian) [µM] | GI50 (UACC-257 melanoma) [µM] | GI50 (SK-MEL-28 melanoma) [µM] | GI50 (HCT-15 colon) [µM] | GI50 (M14 melanoma) [µM]
1 | C[C@]12CC[C@@H]3c4ccc(OCCN5CCCC5)cc4CC[C@H]3[C@@H]1CCC2=O | > 100 | > 100 | > 100 | 69.8 | 29 | 29.4 | 25.1 | > 100 | – | – | – | – | – | – | – | – | – | – | – | –
2 | O=C(O)c1nccnc1C(=O)O | > 100 | > 100 | > 100 | > 100 | > 100 | – | > 100 | – | > 100 | > 100 | – | – | – | – | – | – | – | – | – | –
3 | Cc1ccc(C2CC(c3cccc(Nc4ccncc4)c3)=NN2c2ccccc2)cc1 (configuration not stated) | 3.3 | – | – | 3.12 | – | – | 2.96 | 4.85 | 3.25 | 3.19 | 1.71 | 1.75 | 1.71 | 1.69 | 1.6 | 2.19 | – | – | – | –
4 | C[N+](C)([O-])Cc1cc(-c2ccccc2)ccc1O | > 100 | > 100 | > 100 | > 100 | > 100 | > 100 | > 100 | – | > 100 | > 100 | – | – | – | – | – | – | – | – | – | –
5 | O=c1nc2sc3ccc4ccccc4c3n2[nH]c1=O | > 100 | – | > 100 | > 100 | – | – | > 100 | > 100 | > 100 | > 100 | – | – | – | – | – | – | – | – | – | –
6 | CCCCN=C1OCc2[nH][nH]c(=O)c21 | > 100 | > 100 | > 100 | > 100 | > 100 | > 100 | > 100 | > 100 | > 100 | > 100 | – | – | – | – | – | – | – | – | – | –
7 | CCCOC1OC(CS(=O)(=O)O)C(O)C(O)C1O (configuration not stated) | > 100 | > 100 | > 100 | > 100 | > 100 | > 100 | > 100 | > 100 | > 100 | > 100 | – | – | – | – | – | – | – | – | – | –
8 | COc1cc2c(c(OC(C)=O)c1OC(C)=O)-c1ccc(SC)c(=O)cc1C(NC(C)=O)CC2 (configuration not stated) | > 100 | > 100 | > 100 | > 100 | > 100 | > 69.1 | > 100 | 55.1 | 12 | > 100 | – | – | – | – | – | – | – | – | – | –
9 | [O-][n+]1c(-c2ccccc2)c2nc3ccccc3nc2c2ccccc21 | > 100 | > 100 | > 100 | > 100 | > 100 | > 100 | > 100 | > 100 | > 100 | > 100 | – | – | – | – | – | – | – | – | – | –
10 | N#CCCN(CCC#N)c1ccc(/C=C2\N=C(c3cc([N+](=O)[O-])ccc3Cl)N(NC(=O)CC(=O)Nc3ccccc3Cl)C2=O)cc1 | > 100 | – | > 100 | > 100 | > 100 | > 100 | > 100 | > 100 | > 100 | > 100 | – | – | – | – | – | – | – | – | – | –
11 | CCN(CC)CCNc1ccc2nnn3c4ccccc4c(=O)c1c23 | 15.4 | 22.3 | 16 | 20.4 | 26.2 | 15.6 | 20.9 | 18.6 | 17.3 | 33.4 | – | – | – | – | – | – | – | – | – | –
12 | CCOC(=O)NC(Nc1ccc(Cl)cn1)(C(F)(F)F)C(F)(F)F | – | > 100 | > 100 | > 100 | > 100 | > 100 | > 100 | – | > 100 | – | – | – | – | – | – | – | – | – | – | –
13 | CC(C)CN(CC#N)CC(C)C | > 100 | > 100 | > 100 | > 100 | > 100 | > 100 | > 100 | > 100 | > 100 | > 100 | – | – | – | – | – | – | – | – | – | –
14 | O=C(O)Cn1c2c(c3c(O)cccc31)C(=O)c1ccccc1-2 | > 100 | > 100 | > 100 | – | > 100 | > 100 | > 100 | > 100 | > 100 | > 100 | > 100 | > 100 | – | > 100 | > 100 | > 100 | > 100 | > 100 | > 100 | > 100
15 | NC(N)=NC(N)=Nc1ccccc1 (tested in a mixture with another compound) | > 100 | > 100 | > 100 | > 100 | > 100 | > 100 | > 100 | > 100 | > 100 | > 100 | – | – | – | – | – | – | – | – | – | –
16 | C=CCc1cccc(/C=N\N=C(/N)NO)c1O | > 100 | 30.6 | > 100 | 7.11 | > 100 | – | 33.1 | 52.6 | > 80.9 | 33.5 | – | – | – | – | – | – | – | – | – | –
